The record followed here is patent US9321764B2, “Dihydro-pyrrolopyridinone inhibitors” (AbbVie Inc., priority 2013, dated 2016).

Structures are written as SMILES. Marks after values point to notes of the source that are not given here.

For data set [1], the target named is T1, BRD4 (BDI_K57-E168) (Homo sapiens, UniProt O60885).
T1 construct: BD1: amino acids K57-E168; made in house
Description: TR-FRET bromodomain binding assay, first bromodomain of BRD4. The following applies: His-tagged BD1, 100 nM Alexa647 probe; TR-FRET protocol A-E given per row. Summed up: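 Ki values come from IC50s (4-parameter logistic) corrected for probe Kd and concentration, normalised to no-compound and 1 μM unlabelled probe controls. Probe displacement by TR-FRET used 8 nM BD1 (K57-E168), 100 nM Alexa647 probe, 1 nM Eu-anti-His, 20 mM phosphate pH 6.0, 2% DMSO, 1 h, room temperature.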

Data set [2] deals with T2, BRD4 (BDII_E352-M457) (Homo sapiens, UniProt O60885).
T2 construct: proliferation; Protocol; made in house
In words: TR-FRET bromodomain binding assay, second bromodomain of BRD4. The following applies: His-tagged BD2, 30 nM Alexa647 probe; TR-FRET protocol A-E given per row. Summed up: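 His-tagged BRD4 BD2 ([…]) competed against an Alexa647-labelled BET-inhibitor probe in TR-FRET. Buffer was 20 mM sodium phosphate pH 6.0, 50 mM NaCl, 1 mM EDTA, 0.01% Triton X-100, 1 mM DTT, with method D DMSO series of 2.5 mM–800 nM (stock range). IC50 from 4-parameter fit, Ki from probe Kd and concentration.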

Data set [3] concerns breast cancer cell line MX-1. In words: MX-1 cell line proliferation assay. The following applies: Homo sapiens, MX1, 72 h, MX-1 cells, 3-day proliferation assay, Cell Titer Glo; read-out: Cellular proliferation EC50. The data set is classed as cell-based. The procedure, abridged: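 Final compound concentrations spanned 0.0001 to 3 μM, added to 5000 cells/well plated the previous night in RPMI 1640 plus 10% FBS at 37 °C.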

The subject of data set [4] is LPS induced IL-6 production. In words: LPS (lipopolysaccharide) induced IL-6 production mouse assay. Format: in vivo. The following applies: read-out: Inhibition of LPS induced IL-6 production, % inhibition at 3 mg/kg, 3 mg/kg oral, one hour before LPS 2.5 mg/kg i.p., serum IL-6 2 hours after LPS, SCID female mice, all p < 0.05. As for the experimental part: Compounds of the Examples listed in Table 2 were assayed for their ability to inhibit LPS (lipopolysaccharide) induced IL-6 (Interleukin-6) production in mice. Fox Chase SCID® female mice (Charles Rivers Labs, 5 per group) received an intraperitoneal challenge of lipopolysaccharide (2.5 mg/kg, L2630 E. coli 0111:B4) one hour after oral administration of compounds. Mice were euthanized 2 hours after lipopolysaccharide injection, blood was removed by cardiac puncture, and then the serum harvested from the blood samples was frozen at −80° C. On the day of the assay the serum samples were brought to room temperature and then diluted 1:20 in phosphate-buffered saline containing 2% bovine serum albumin. Interleukin-6 measurements were performed using a cytokine assay from Meso Scale Discovery (Gaithersburg, Md.) for mouse serum analysis according to the manufacturer's protocol and read on a SECTOR Imager 6000 (Meso Scale Discovery, Gaithersburg, Md.) instrument. Statistical analysis was performed using Prism software (version 5.0) incorporating Dunnett's one way ANOVA. The IL-6 mean and standard deviation of the group of vehicle treated animals were compared with the IL-6 mean and standard deviation of the group treated with drug. A p value <0.05 means that there is less than a 5% probability that the mean values in the two groups are equal.

Data set [5] deals with OPM-2 xenograft tumors. In words: Xenograft tumor growth inhibition assay (OPM-2). Format: in vivo, mice. The conditions noted are these: QDx21; for % TGI: OPM-2 xenograft, SCID-beige mice; for % removed from study: removed due to morbidity or weight loss in excess of 20%. As for the experimental part:
The effect of compounds of the examples to inhibit the growth of OPM-2 xenograft tumors implanted in mice was evaluated. A suspension of cancer cells (5×10^6 per 0.1 mL) prepared in RPMI culture medium (Invitrogen, Carlsbad, Calif.) was diluted 1:1 with a solution of Matrigel™ (BD Biosciences, Franklin Lakes, N.J.) and inoculated subcutaneously into the right hind flank of female SCID-beige (Charles River Labs) mice. Randomization into treatment and vehicle control groups (10/group) occurred when the mean tumor volume reached approximately 250 mm^3 Compounds were formulated in 10% EtOH, 30% PEG 400, 60% Phosol 53 MCT. Administration of compound or vehicle was initiated on the day following randomization and continued for 21 days.

For the molecule `Cn1cc(-c2cc(NS(C)(=O)=O)c(F)cc2Oc2ccc(F)cc2F)c2cc[nH]c(=O)c21` [Example 11, N-[4-(2,4-difluorophenoxy)-2-fluoro-5-(1-methyl-7-oxo-6,7-dihydro-1H-pyrrolo[2,3-c]pyridin-3-yl)phenyl]methanesulfonamide], the Ki was 8.9 nM in data set [1] and 31 nM in data set [2]. The EC50 in data set [3] worked out at 37 nM. The inhibition in vivo at 3 mg/kg in data set [4] was 66%.
Taken in the same sequence, the figures for `CCS(=O)(=O)Cc1ccc(Oc2ccc(F)cc2F)c(-c2cn(C)c3c(=O)[nH]ccc23)c1` [Example 53, 3-{2-(2,4-difluorophenoxy)-5-[(ethylsulfonyl)methyl]phenyl}-1-methyl-1,6-dihydro-7H-pyrrolo[2,3-c]pyridin-7-one] were 3.2 nM, 6.6 nM, 39 nM and 74%.
`Cn1cc(-c2cc(CS(C)(=O)=O)ccc2Oc2ccc(F)cc2F)c2cc[nH]c(=O)c21` [Example 52, 3-{2-(2,4-difluorophenoxy)-5-[(methylsulfonyl)methyl]phenyl}-1-methyl-1,6-dihydro-7H-pyrrolo[2,3-c]pyridin-7-one]: the Ki is 4.6 nM in data set [1] and 7.1 nM in data set [2]. Moreover, the inhibition in vivo at 3 mg/kg in data set [4] came out at 77%. Besides, the “% TGI” value in data set [5] (1 mg/kg PO) is reported as 13%; in data set [5] (3 mg/kg PO), 16%. Also, the “% removed from study” value in data set [5] (1 mg/kg PO) stood at 0%; in data set [5] (3 mg/kg PO), 10%.
With `Cn1cc(-c2cc(S(C)(=O)=O)ccc2Oc2ccc(F)cc2F)c2cc[nH]c(=O)c21` [Example 17, 3-[2-(2,4-difluorophenoxy)-5-(methylsulfonyl)phenyl]-1-methyl-1,6-dihydro-7H-pyrrolo[2,3-c]pyridin-7-one], the Ki in data set [1] was 34 nM; in data set [2], 38 nM. For the same molecule, the EC50 in data set [3] worked out at 107 nM. Besides, in data set [4], the inhibition in vivo at 3 mg/kg is 49%. Besides, the “% TGI” value is given as 60*** % in data set [5] (10 mg/kg PO) and 64*** % in data set [5] (30 mg/kg PO). In addition, the “% removed from study” value in data set [5] (10 mg/kg PO) and in data set [5] (30 mg/kg PO) was 10% throughout.
As for `Cn1cc(-c2cc(CS(C)(=O)=O)cnc2Oc2ccc(F)cc2F)c2cc[nH]c(=O)c21` [Example 60, 3-{2-(2,4-difluorophenoxy)-5-[(methylsulfonyl)methyl]pyridin-3-yl}-1-methyl-1,6-dihydro-7H-pyrrolo[2,3-c]pyridin-7-one], the figures for the inhibition constant Ki in data set [1] and in data set [2] were 16 nM and 6.2 nM, respectively. Moreover, the EC50 in data set [3] was 37 nM. For the same molecule, the inhibition in vivo at 3 mg/kg in data set [4] is 62%.
Taken in the same sequence, the figures for `Cn1cc(-c2cc(S(C)(=O)=O)ccc2OCCC2CC2)c2cc[nH]c(=O)c21` [Example 32, 3-[2-(2-cyclopropylethoxy)-5-(methylsulfonyl)phenyl]-1-methyl-1,6-dihydro-7H-pyrrolo[2,3-c]pyridin-7-one] were 6.1 nM, 11 nM, 127 nM and 33%.
Taken in the same sequence, the figures for `Cn1cc(-c2cc(S(C)(=O)=O)ccc2OC2CCC(F)(F)CC2)c2cc[nH]c(=O)c21` [Example 25, 3-{2-[(4,4-difluorocyclohexyl)oxy]-5-(methylsulfonyl)phenyl}-1-methyl-1,6-dihydro-7H-pyrrolo[2,3-c]pyridin-7-one] were 14 nM, 60 nM, 80 nM and 62%.
Taken in the same sequence, the figures for `Cn1cc(-c2cc(NS(C)(=O)=O)ccc2Oc2ccc(C#N)cc2)c2cc[nH]c(=O)c21` [Example 16, N-[4-(4-cyanophenoxy)-3-(1-methyl-7-oxo-6,7-dihydro-1H-pyrrolo[2,3-c]pyridin-3-yl)phenyl]methanesulfonamide] were 2.1 nM, 27 nM, 59 nM and 69%.
